The results in this text go back to patent publication US10987059B2, “Electronic scaffold and uses thereof” (Ramot at Tel-Aviv University Ltd., priority 2013, dated 2021).

Data set [1] concerns neonatal rat ventricular cardiomyocytes. In words: Action potentials recorded from the engineered (cyborg) tissue before and after adding a stimulating drug. The class given is cell-based. The conditions noted are these: 100 nM in growth medium, 15 minutes incubation; single electrode; device with albumin fibrous scaffold; before vs after drug. The method, then: After the device was incubated for a time period that allows tissue generation, the obtained cyborg tissue was connected to the pre-amplifier and monitored through the computer, using a system as exemplified in FIG. 8. This allows monitoring the progress of tissue formation as well as studying the influence of different conditions and substances on the tissue, an approach that could replace animal drug testing and make it easier and simpler.
At the time of the recording, the device was connected to a ME64-FAI-MPA-System by multichannel systems (Germany). Action potentials were recorded using the MC rack software which allows recording over multiple electrodes simultaneously.
After action potentials were recorded, 100 nM of noradrenaline was added to the growth medium and the device was allowed to incubate for 15 minutes after which the device was reconnected and action potentials were again recorded.

Data set [2] in a line: Release profile of SSA from polypyrrole hydrogel scaffold upon voltage application. The class given is physicochemical. To be noted: absorbance at 280 nm. The method, then:
Pyrrole was […] in a 10-mL one-compartment cell, using an electrochemical workstation under computer control. The gold-based microelectrodes, prepared as described in Example 1 hereinabove, were used as working electrodes. The counter electrode was platinum wire and the reference electrode was a saturated calomel electrode (SCE). The electrolyte was an aqueous solution (100 ml) containing 0.2 M pyrrole (1.39 ml) and 0.2 M sulfosalicylic acid (5.08 grams), which was degassed by nitrogen stream before polymerization was effected. The SSA-doped PPy films (PPy-SSA) were prepared on the gold microelectrodes by galvanostatic polymerization using a current density of 2.5 mA/cm^2 for 800 seconds. The as-prepared PPy-SSA films were rinsed with de-ionized water and dried in air at room temperature. A second layer was thereafter deposited by using an aqueous solution (100 ml) of 0.2 M pyrrole and 0.1 M NaCl (0.5844 grams), subjected to a galvanostatic polymerization with a current density of 2 mA/cm^2 for 500 seconds.

For data set [3] the following is noted: poly(2-acrylamido-2-methylpropane sulfonic acid-co-n-butylmethacrylate) scaffold; PBS medium; optical density at 462.
Experimental: The release profile of dopamine from device polymeric element made of a positive electro-responsive polymer as described herein was measured as follows:
Disc shaped preloaded slices of formed hydrogel (2-3 mm) were placed between two Graphite electrodes (1 cm apart) in a plastic culture plate. The electrodes were connected to a stimulus generator (STG-4002 multichannel systems, Germany), and the plate was filled with a medium of PBS (0.35 ml). A DC pulse of different intensities (0-8 volt) and different durations (0-15 minutes) was supplied.
Nano-Drop spectrophotometer (ND-1000 spectrophotometer, Thermo scientific, Wilmington Del. U.S.A) at a wave length of 462 was used to examine the light absorbance of the medium. The relation between the light absorbance and the concentration is given by Beer-Lambert as a linear equation: A=εlc
wherein A is the light absorbance, l is the length of the light through the sample [m], C is the concentration in [M], and ε is the molar absorptivity [m^−1M^−1].

Take `NC[C@H](O)c1ccc(O)c(O)c1` [Noradrenalin]: the “frequency of the action potentials” value in data set [1] was “increased”.

Turning to `O=C(O)c1cc(S(=O)(=O)O)ccc1O` [SSA, Sulfosalicylic acid], the “drug release, voltage on vs off” value in data set [2] is “When voltage is applied the drug is released into the polymer's vicinity and when voltage application is discontinued drug release ceases”.

For `NCCc1ccc(O)c(O)c1` [dopamine], the “drug release rate, voltage on vs off” value in data set [3] was “much higher drug release rate when voltage is applied (on) than when it is not applied (off)”.
